In patent US12662491B2 (Redona Therapeutics, Inc., priority 2020, dated 2026):

Target: T1, Zcchc11 enzyme (Homo sapiens, UniProt Q5TAX3)
T1 construct: made in house; host or cells: HEK293 cells (Zcchc11); E. coli Rosetta II (LIN28A)
T1 sequence (Q5TAX3 212-1420): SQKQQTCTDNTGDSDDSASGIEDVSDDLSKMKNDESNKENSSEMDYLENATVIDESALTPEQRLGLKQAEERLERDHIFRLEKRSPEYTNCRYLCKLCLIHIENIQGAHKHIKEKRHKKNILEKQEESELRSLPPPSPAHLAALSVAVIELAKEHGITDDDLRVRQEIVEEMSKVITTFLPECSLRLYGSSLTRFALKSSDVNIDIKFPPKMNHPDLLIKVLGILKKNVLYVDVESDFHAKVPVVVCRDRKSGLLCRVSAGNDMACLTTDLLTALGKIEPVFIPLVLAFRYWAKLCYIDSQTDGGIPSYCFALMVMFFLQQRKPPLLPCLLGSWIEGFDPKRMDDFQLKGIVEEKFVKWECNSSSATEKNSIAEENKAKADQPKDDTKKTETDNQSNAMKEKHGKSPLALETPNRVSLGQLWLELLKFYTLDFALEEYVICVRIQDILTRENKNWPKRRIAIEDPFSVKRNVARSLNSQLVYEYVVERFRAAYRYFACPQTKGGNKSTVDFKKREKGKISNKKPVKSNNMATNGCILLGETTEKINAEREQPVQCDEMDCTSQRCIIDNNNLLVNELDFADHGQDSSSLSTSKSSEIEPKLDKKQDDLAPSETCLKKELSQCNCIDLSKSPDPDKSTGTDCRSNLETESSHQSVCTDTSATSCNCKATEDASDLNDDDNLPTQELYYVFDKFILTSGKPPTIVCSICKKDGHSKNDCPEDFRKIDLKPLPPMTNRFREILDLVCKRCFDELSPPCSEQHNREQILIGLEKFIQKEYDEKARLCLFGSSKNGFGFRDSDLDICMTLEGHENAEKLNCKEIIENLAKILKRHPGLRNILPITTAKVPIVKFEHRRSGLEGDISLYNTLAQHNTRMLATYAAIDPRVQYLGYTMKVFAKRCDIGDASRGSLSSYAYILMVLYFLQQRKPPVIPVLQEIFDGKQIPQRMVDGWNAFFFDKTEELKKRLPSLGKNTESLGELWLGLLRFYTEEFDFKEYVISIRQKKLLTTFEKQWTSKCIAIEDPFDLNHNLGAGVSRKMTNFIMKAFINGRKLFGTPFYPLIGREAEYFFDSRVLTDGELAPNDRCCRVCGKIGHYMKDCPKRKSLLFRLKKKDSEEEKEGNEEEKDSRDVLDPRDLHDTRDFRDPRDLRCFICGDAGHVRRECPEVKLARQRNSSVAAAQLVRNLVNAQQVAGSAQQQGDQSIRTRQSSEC
Experiment: TUTase assay (Zcchc11 assay, Lin28a-dependent polyuridylation of pre-let-7)
Format: biochemical
Conditions: Lin28a-dependent Zcchc11 (Z11) TUTase assay; read-out: Potency Lin28a-dep Z11 IC50
Procedure, shortened: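 Polyuridylation measured as fluorescein loss when a rhodamine-labelled A20 probe anneals to U-tails added to fluorescein pre-let-7 (2 nM). Reaction: truncated Zcchc11 0.2 nM, E. coli-made LIN28A 10 nM, UTP 5 uM, HEPES pH 7.3, room temperature. Initial rates fitted to four-parameter IC50.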

IC50, 1000 to 10000 nM:
O=C(O)c1cn(C2CC2)c2cc(N3CCC[C@@H]3COc3ccccn3)c(F)cc2c1=O [Example 447, (R)-1-cyclopropyl-6-fluoro-4-oxo-7-(2-((pyridin-2-yloxy)methyl)pyrrolidin-1-yl)-1,4-dihydroquinoline-3-carboxylic acid]
O=C(O)c1cn(C2CCC2)c2cc(N3CCC[C@@H]3COc3ccccn3)c(F)cc2c1=O [Example 448, (R)-1-cyclobutyl-6-fluoro-4-oxo-7-(2-((pyridin-2-yloxy)methyl)pyrrolidin-1-yl)-1,4-dihydroquinoline-3-carboxylic acid]
O=C(O)c1cn(C2CCCC2)c2cc(N3CCC[C@@H]3COc3ccccn3)c(F)cc2c1=O [Example 449, (R)-1-cyclopentyl-6-fluoro-4-oxo-7-(2-((pyridin-2-yloxy)methyl)pyrrolidin-1-yl)-1,4-dihydroquinoline-3-carboxylic acid]
O=C(O)c1cn(C2CCOCC2)c2cc(N3CCC[C@@H]3COc3ccccn3)c(F)cc2c1=O [Example 450, (R)-6-fluoro-4-oxo-7-(2-((pyridin-2-yloxy)methyl)pyrrolidin-1-yl)-1-(tetrahydro-2H-pyran-4-yl)-1,4-dihydroquinoline-3-carboxylic acid]
O=C(O)c1cn(C2COC2)c2cc(N3CCC[C@@H]3COc3ccccn3)c(F)cc2c1=O [Example 451, (R)-6-fluoro-1-(oxetan-3-yl)-4-oxo-7-(2-((pyridin-2-yloxy)methyl)pyrrolidin-1-yl)-1,4-dihydroquinoline-3-carboxylic acid]
O=C(O)c1cn(C2CC(O)C2)c2cc(N3CCC[C@@H]3COc3ccccn3)c(F)cc2c1=O (stereo partly drawn) [Example 452, (R)-6-fluoro-1-(3-hydroxycyclo-butyl)-4-oxo-7-(2-((pyridin-2-yloxy)methyl)pyrrolidin-1-yl)-1,4-dihydroquinoline-3-carboxylic acid]
Cc1cccnc1OC[C@H]1CCCN1c1cc2c(cc1Cl)c(=O)c(C(=O)O)cn2C1(CO)CC1 [Example 454, (R)-6-chloro-1-(1-(hydroxymethyl)cyclopropyl)-7-(2-(((3-methyl-pyridin-2-yl)oxy)methyl)pyrrolidin-1-yl)-4-oxo-1,4-dihydroquinoline-3-carboxylic acid]
Cc1cccnc1OC[C@H]1CCCN1c1cc2c(cc1Cl)c(=O)c(C(=O)O)cn2C1(C)CCC1 [Example 455, (R)-6-chloro-1-(1-methylcyclobutyl)-7-(2-(((3-methylpyridin-2-yl)oxy)methyl)pyrrolidin-1-yl)-4-oxo-1,4-dihydroquinoline-3-carboxylic acid]
Cc1cccnc1OC[C@H]1CCCN1c1cc2c(cc1Cl)c(=O)c(C(=O)O)cn2C1(C)COC1 [Example 456, (R)-6-chloro-1-(3-methyloxetan-3-yl)-7-(2-(((3-methylpyridin-2-yl)oxy)methyl)pyrrolidin-1-yl)-4-oxo-1,4-dihydroquinoline-3-carboxylic acid]
Cc1cccnc1OC[C@H]1CCCN1c1cc2c(cc1Cl)c(=O)c(C(=O)O)cn2C1CN(C)C1 [Example 458, (R)-6-chloro-1-(1-methylazetidin-3-yl)-7-(2-(((3-methylpyridin-2-yl)oxy)methyl)pyrrolidin-1-yl)-4-oxo-1,4-dihydroquinoline-3-carboxylic acid]
Cc1cccnc1OC[C@H]1CCCN1c1cc2c(cc1Cl)c(=O)c(C(=O)O)cn2C1(C)CCOCC1 [Example 459, (R)-6-chloro-7-(2-(((3-methylpyridin-2-yl)oxy)methyl)pyrrolidin-1-yl)-1-(4-methyltetra-hydro-2H-pyran-4-yl)-4-oxo-1,4-dihydroquinoline-3-carboxylic acid]
CN1CCC(n2cc(C(=O)O)c(=O)c3cc(Cl)c(N4CCC[C@@H]4COc4ncccc4Cl)cc32)C1 (stereo partly drawn) [Example 461, 6-chloro-7-((R)-2-(((3-chloropyridin-2-yl)oxy)methyl)pyrrolidin-1-yl)-1-(1-methyl-pyrrolidin-3-yl)-4-oxo-1,4-dihydroquinoline-3-carboxylic acid]
CN1CCC(n2cc(C(=O)O)c(=O)c3cc(Cl)c(N4CCC[C@@H]4COc4ncccc4Cl)cc32)CC1 [Example 462, (R)-6-chloro-7-(2-(((3-chloropyridin-2-yl)oxy)methyl)pyrrolidin-1-yl)-1-(1-methyl-piperidin-4-yl)-4-oxo-1,4-dihydro-quinoline-3-carboxylic acid]
COCCN1CCC(n2cc(C(=O)O)c(=O)c3cc(Cl)c(N4CCC[C@@H]4COc4ncccc4Cl)cc32)CC1 [Example 463, (R)-6-chloro-7-(2-(((3-chloropyridin-2-yl)oxy)methyl)pyrrolidin-1-yl)-1-(1-(2-methoxy-ethyl)piperidin-4-yl)-4-oxo-1,4-dihydroquinoline-3-carboxylic acid]

IC50, ≤ 1000 nM:
Cc1cccnc1OC[C@H]1CCCN1c1cc2c(cc1Cl)c(=O)c(C(=O)O)cn2C1(C)CCCC1 [Example 457, (R)-6-chloro-1-(1-methylcyclo-pentyl)-7-(2-(((3-methylpyridin-2-yl)oxy)methyl)pyrrolidin-1-yl)-4-oxo-1,4-dihydroquinoline-3-carboxylic acid]
Cc1cccnc1OC[C@H]1CCCN1c1cc2c(cc1Cl)c(=O)c(C(=O)O)cn2C1(C)CC1 [Example 460, (R)-6-chloro-1-(1-methylcyclo-propyl)-7-(2-(((3-methylpyridin-2-yl)oxy)methyl)pyrrolidin-1-yl)-4-oxo-1,4-dihydroquinoline-3-carboxylic acid]
CN(C)C1CN(c2ccc(-n3cc(C(=O)O)c(=O)c4cc(Cl)c(N5C[C@@H](F)C[C@@H]5COc5ncccc5Cl)cc43)cn2)C1 [Example 464, 6-chloro-7-((2R,4S)-2-(((3-chloropyridin-2-yl)oxy)methyl)-4-fluoropyrrolidin-1-yl)-1-(6-(3-(dimethylamino)azetidin-1-yl)pyridin-3-yl)-4-oxo-1,4-dihydroquinoline-3-carboxylic acid]
CN(C)C1CN(c2ccc(-n3cc(C(=O)O)c(=O)c4cc(F)c(N5C[C@@H](F)C[C@@H]5COc5ncccc5F)cc43)cn2)C1 [Example 465, 1-(6-(3-(dimethylamino)azetidin-1-yl)pyridin-3-yl)-6-fluoro-7-((2R,4S)-4-fluoro-2-(((3-fluoropyridin-2-yl)oxy)methyl)pyrrolidin-1-yl)-4-oxo-1,4-dihydroquinoline-3-carboxylic acid]
CN(C)C1CN(c2ccc(-n3cc(C(=O)O)c(=O)c4cc(Cl)c(N5C[C@@H](F)C[C@@H]5COc5ncccc5F)cc43)cn2)C1 [Example 466, 6-chloro-1-(6-(3-(dimethylamino)azetidin-1-yl)pyridin-3-yl)-7-((2R,4S)-4-fluoro-2-(((3-fluoropyridin-2-yl)oxy)methyl)pyrrolidin-1-yl)-4-oxo-1,4-dihydroquinoline-3-carboxylic acid]

IC50, 10000 to 50000 nM:
O=C(O)c1cn(C2CC(CO)C2)c2cc(N3CCC[C@@H]3COc3ccccn3)c(F)cc2c1=O (stereo partly drawn) [Example 453, (R)-6-fluoro-1-(3-(hydroxymethyl)cyclobutyl)-4-oxo-7-(2-((pyridin-2-yloxy)methyl)pyrrolidin-1-yl)-1,4-dihydroquinoline-3-carboxylic acid]
